# B1: CYP3A5 (Homo sapiens) (protein)
# chain: MDLIPNLAVETWLLLAVSLVLLYLYGTRTHGLFKRLGIPGPTPLPLLGNVLSYRQGLWKFDTECYKKYGKMWGTYEGQLPVLAITDPDVIRTVLVKECYSVFTNRRSLGPVGFMKSAISLAEDEEWKRIRSLLSPTFTSGKLKEMFPIIAQYGDVLVRNLRREAEKGKPVTLKDIFGAYSMDVITGTSFGVNIDSLNNPQDPFVESTKKFLKFGFLDPLFLSIILFPFLTPVFEALNVSLFPKDTINFLSKSVNRMKKSRLNDKQKHRLDFLQLMIDSQNSKETESHKALSDLELAAQSIIFIFAGYETTSSVLSFTLYELATHPDVQQKLQKEIDAVLPNKAPPTYDAVVQMEYLDMVVNETLRLFPVAIRLERTCKKDVEINGVFIPKGSMVVIPTYALHHDPKYWTEPEEFRPERFSKKKDSIDPYIYTPFGTGPRNCIGMRFALMNMKLALIRVLQNFSFKPCKETQIPLKLDTQGLLQPEKPIVLKVDSRDGTLSGE
# B2: CYP1A1 (Homo sapiens) (protein)
# chain: MLFPISMSATEFLLASVIFCLVFWVIRASRPQVPKGLKNPPGPWGWPLIGHMLTLGKNPHLALSRMSQQYGDVLQIRIGSTPVVVLSGLDTIRQALVRQGDDFKGRPDLYTFTLISNGQSMSFSPDSGPVWAARRRLAQNGLKSFSIASDPASSTSCYLEEHVSKEAEVLISTLQELMAGPGHFNPYRYVVVSVTNVICAICFGRRYDHNHQELLSLVNLNNNFGEVVGSGNPADFIPILRYLPNPSLNAFKDLNEKFYSFMQKMVKEHYKTFEKGHIRDITDSLIEHCQEKQLDENANVQLSDEKIINIVLDLFGAGFDTVTTAISWSLMYLVMNPRVQRKIQEELDTVIGRSRRPRLSDRSHLPYMEAFILETFRHSSFVPFTIPHSTTRDTSLKGFYIPKGRCVFVNQWQINHDQKLWVNPSEFLPERFLTPDGAIDKVLSEKVIIFGMGKRKCIGETIARWEVFLFLAILLQRVEFSVPLGVKVDMTPIYGLTMKHACCEHFQMQLRS
# Assays:
# HLMs = assay: Chemical inhibition assay: formation of P4 from toddalolactone in HLMs; assay type: in vitro ADME, human; conditions: HLMs with toddalolactone and NADPH-generating system; ketoconazole 1 μM, clobetasol propionate 1.8 μM, quinidine 10 μM; vs no inhibitor
# Protocol: All incubation assays were completed in triplicate. The data are presented as mean ± standard deviation (SD).
# Specific inhibitors for P450 isoforms were used to explore the contribution of CYP isoforms to the biotransformation of toddalolactone. […] In brief, toddalolactone was incubated with HLMs and an NADPH-generating system in the presence and absence (control) of the aforementioned specific inhibitors.
# CYP3A5 = CYP3A5 (Homo sapiens, UniProt P20815); parameters: purchased Corning Life Sciences (Corning, MA); host or cells: Saccharomyces cerevisiae; method as in Wright et al. [2020]; conditions: at 1.8 μM; ref Wright et al. [2020]; cited from earlier work
# [1] = substrate: COc1cc2oc(=O)ccc2c(OC)c1C[C@@H](O)C(C)(C)O; assay: cells, lysate or membranes named; conditions: P4 formation, toddalolactone 1–200 μM, pH 7.4, 37.0 °C
# Protocol: The CYP reaction system (200 μL) consisted of 0.1 M potassium phosphate buffer (pH 7.4), an NADPH-generating system (1 mM NADPH, 10 mM G-6-P, 1 unit/mL G-6-PD, 4 mM MgCl2), and liver microsomes or recombinant human microsomes (supersomes). Each of the in vitro enzymatic assays using liver microsomes was linear with respect to incubation time and amount of protein. After a pre-incubation at 37 °C for 3 min, the reactions were initiated by adding NADP^+. After incubating for 60 min, the reactions were quenched by adding 200 μL of ice-cold acetonitrile. Samples were centrifuged at 18,000 g for 15 min at 4 °C and 10 μL of supernatant was analyzed using an HPLC system. NADPH or CYP enzyme sources were not used in the control group to ensure that the metabolic reactions were CYP- and NADPH-dependent. All incubation assays were completed in triplicate. The data are presented as mean ± standard deviation (SD).
# The enzyme kinetics of toddalolactone in oxidative metabolism and glucuronidation were determined by incubating liver microsomes (0.2 mg/mL) or CYPs (15 nM) with different concentrations of toddalolactone (1–200 μM). […] The in vitro intrinsic clearance (CLint) was calculated based on the Vmax/Km ratio. Metabolites were quantified using the standard curve for toddalolactone because of the absence of metabolite standards. […]
molecule,measurement,setting,value
CCC(=O)O[C@]1(C(=O)CCl)[C@@H](C)C[C@H]2[C@@H]3CCC4=CC(=O)C=C[C@]4(C)[C@@]3(F)[C@@H](O)C[C@@]21C [clobetasol propionate],inhibition of formation of P4,HLMs,~40%
same,inhibition of CYP3A5,CYP3A5,90%
B1,kcat,[1]; other: recombinant CYP3A5 (15 nM),0.68 ± 0.04 pmol/min/nmol CYP
B2,kcat,[1]; other: recombinant CYP1A1 (15 nM),0.76 ± 0.03 pmol/min/nmol CYP

# — publication PMC9367672, “In vitro differences in toddalolactone metabolism in various species and its effect on cytochrome P450 expression” (Pharmaceutical Biology, 2022)
